Results: article PMC6881254, “ABCA1 transporter reduces amphotericin B cytotoxicity in mammalian cells” (Cellular and Molecular Life Sciences: CMLS, 2019)
In brackets after ≈: the same amount, converted by molar mass. Read-outs that look alike come from different tables or passages of the source.

Legend:
[1] = test system: CHO-K1 wild-type cells; test: AmB cytotoxicity, MTT assay in CHO-K1 wild-type cells; format: cell-based, Chinese hamster; settings: Cricetulus griseus, AmB 3 h, read-out: IC50 (cell viability, MTT)
Experimental: (§1) A1G and MMG cell lines, mock and GW3965-treated macrophages were seeded in triplicate in 96-well plates at 1 × 10^4 cells/well for CHO cells and 2 × 10^4 cells for Raw 264.7 macrophages and incubated in complete Ham’s F-12 medium at 37 °C, 5% CO2 overnight to allow the cells to attach to the plate. The medium was then removed, AmB was added in complete Ham’s F-12 medium (or in ΔFBS medium, see next paragraph) in different concentrations (from 0 to 40 µg/mL) and cells were incubated for 3 h at 37 °C. For probucol treatment, the cells were preincubated with 10 µM probucol in complete Ham’s F-12 medium at 37 °C, 5% CO2 for 2 h. Then, the medium was removed and AmB was added in different concentrations (from 0 to 40 µg/mL) in complete Ham’s F-12 medium containing 10 µM probucol and cells were incubated for additional 3 h at 37 °C, 5% CO2. After incubation, the medium was removed and 3-[4,5-dimethylthiazol-2-yl]-2,5-diphenyltetrazolium bromide (MTT, 0.5 mg/mL, Sigma-Aldrich) in complete Ham’s F-12 was added. […] Plates were shaken for 10 min before reading them on a UVM 340 microplate reader (Biogenet) at 550 nm with a reference wavelength of 630 nm. […]
(§2) All mathematical and statistical analysis was performed using the GraphPad Prism 7 software package (GraphPad). […] The statistical significance of differences was assessed either by two-way ANOVA or by t test. […]

[2] = test system: A1G cells; test: AmB cytotoxicity, MTT assay in A1G cells (CHO-K1 stably expressing ABCA1-GFP); format: cell-based, Chinese hamster; settings: Cricetulus griseus, ± SE
Experimental: (§3) A1G and MMG cell lines, mock and GW3965-treated macrophages were seeded in triplicate in 96-well plates at 1 × 10^4 cells/well for CHO cells and 2 × 10^4 cells for Raw 264.7 macrophages and incubated in complete Ham’s F-12 medium at 37 °C, 5% CO2 overnight to allow the cells to attach to the plate. […] For probucol treatment, the cells were preincubated with 10 µM probucol in complete Ham’s F-12 medium at 37 °C, 5% CO2 for 2 h. Then, the medium was removed and AmB was added in different concentrations (from 0 to 40 µg/mL) in complete Ham’s F-12 medium containing 10 µM probucol and cells were incubated for additional 3 h at 37 °C, 5% CO2. After incubation, the medium was removed and 3-[4,5-dimethylthiazol-2-yl]-2,5-diphenyltetrazolium bromide (MTT, 0.5 mg/mL, Sigma-Aldrich) in complete Ham’s F-12 was added. Cells were incubated for 4 h at 37 °C, then MTT was removed carefully and the formazan crystals were dissolved in DMSO. Plates were shaken for 10 min before reading them on a UVM 340 microplate reader (Biogenet) at 550 nm with a reference wavelength of 630 nm. The cell viability was estimated as the percentage of the control, which was the cells untreated with any agents (100%).
(§4) To lower the cholesterol content in the cells, A1G and MMG cell lines were seeded at either 1 × 10^4 cells/well in a 96-well plate (cytotoxicity) or 4 × 10^5 cells/well (cholesterol content) in a 6-well plate in complete Ham’s F-12 medium for 8 h to allow the cells to attach to the plate. Cells were then washed three times with Ham’s F-12 medium supplemented with delipidated serum (Biowest) (ΔFBS medium) and incubated with 10 µM zaragozic acid (ZA) in ΔFBS medium for 16 h at 37 °C, 5% CO2. To reload the plasma membrane with cholesterol, cells after ZA treatment were washed three times with ΔFBS medium and incubated with 100 µM cholesterol–1 mM methyl-β-cyclodextrin complex in ΔFBS medium for 30 min at 37 °C, 5% CO2. As a control, cells were incubated for 16 h with only ΔFBS medium at 37 °C, 5% CO2. After treatment, cells were either processed with AmB cytotoxicity MTT assay or lysed as described for cholesterol content measurement.
(§5) All mathematical and statistical analysis was performed using the GraphPad Prism 7 software package (GraphPad). For IC50 value determination, a nonlinear fit (inhibitor vs. normalized response with variable slope) of cell viability in the function of AmB decreased concentrations was applied. The statistical significance of differences was assessed either by two-way ANOVA or by t test. For all tests, the significance level (alpha, α) was set to 0.05. Significant differences are indicated in individual graphs with p values as follows: ****p < 0.0001, ***p < 0.001, **p < 0.01, *p < […]. If the differences were not significant, nothing is stated. For each result, an appropriate description of the analysis appears in the figure legend.

[3] = test system: A1G cells; test: [3H]-cholesterol efflux to AmB as acceptor in A1G cells; format: cell-based, Chinese hamster; settings: 20 µg/mL AmB
Experimental: (§6) The [^3H]-cholesterol efflux protocol was adapted from Yang and Gelissen. Briefly, A1G and MMG cells were seeded in 0.5 mL of complete Ham’s F12 medium at 5 × 10^4 cells/well in 24-well plates and grown overnight at 37 °C, 5% CO2. The next day, the cell culture medium was replaced either with 0.25 mL of complete Ham’s F12 medium or complete Ham’s F12 medium containing 1 µCi/mL of [^3H]-cholesterol (Perkin Elmer) and incubated for 24 h at 37 °C, 5% CO2. On the last day, the cell medium was removed, and the cells were washed three times with PBS buffer (with intermediate 15 min incubation in PBS buffer). Afterwards, cells were incubated for 3 h in 0.25 mL of complete Ham’s F12 medium containing (or not, in controls) 20 µg/mL of AmB at 37 °C, 5% CO2. […] One hundred fifty microliters of each of cell medium and cell lysate were added to 5 mL of Ecolite + scintillation cocktail (MPBIO) and radioactivity was counted in CPM mode using a Beckman LS analyzer (Beckman Coulter). After subtraction of background radioactivity, the percentage of [^3H]-cholesterol efflux was calculated according to the formula: (CPM in media)/[(CPM in media) + (CPM in cells)].

[4] = test system: Raw 264.7 macrophages; test: AmB cytotoxicity, MTT assay in Raw 264.7 macrophages; format: cell-based, murine; settings: Mus musculus, RAW264.7, AmB 3 h, read-out: IC50 (cell viability, MTT)
Experimental: as §1, with “CO2.” for “CO2. After incubation, the medium was removed and 3-[4,5-dimethylthiazol-2-yl]-2,5-diphenyltetrazolium bromide (MTT, 0.5 mg/mL, Sigma-Aldrich) in complete Ham’s F-12 was added.”
as §2
Cells were exposed to increased concentrations of AmB, ranging from 0 to 40 µg/mL, for 3 h and then the viability was analyzed by MTT assay. […]

[5] = test system: MMG cells; test: AmB cytotoxicity, MTT assay in MMG cells (CHO-K1 stably expressing non-active ABCA1MM-GFP); format: cell-based, Chinese hamster; settings: Cricetulus griseus, ± SE
Experimental: as §3, §4, §5

[6] = test system: MMG cells; test: [3H]-cholesterol efflux to AmB as acceptor in MMG cells; format: cell-based, Chinese hamster; settings: 20 µg/mL AmB
Experimental: as §6

[7] = test system: A1G and MMG cell lines; test: Total cellular cholesterol content (Amplex Red) after zaragozic acid treatment; format: cell-based, Chinese hamster; settings: 10 µM ZA in ΔFBS medium 16 h, compared with non-ZA-treated cells cultured in ΔFBS medium
Experimental: To lower the cholesterol content in the cells, A1G and MMG cell lines were seeded at either 1 × 10^4 cells/well in a 96-well plate (cytotoxicity) or 4 × 10^5 cells/well (cholesterol content) in a 6-well plate in complete Ham’s F-12 medium for 8 h to allow the cells to attach to the plate. Cells were then washed three times with Ham’s F-12 medium supplemented with delipidated serum (Biowest) (ΔFBS medium) and incubated with 10 µM zaragozic acid (ZA) in ΔFBS medium for 16 h at 37 °C, 5% CO2. […]
The cells were harvested, washed three times with PBS and lysed with RIPA buffer (25 mM HEPES, pH 7.4, 150 mM NaCl, 1% NP40, 10 mM MgCl2, 1 mM EDTA, 2% glycerol, protease and phosphatase inhibitor cocktail) for 30 min on ice. […] Total cellular cholesterol level was determined enzymatically by cholesterol oxidase using the Amplex Red Cholesterol Assay Kit (Thermo Fisher Scientific) according to the manufacturer’s recommendations. […] The protein concentration was measured by BCA Assay Kit (Sigma-Aldrich). […] Fluorescence was measured using excitation at 560 nm and emission detection at 590 nm with a Cary Eclipse fluorescence microplate reader (Agilent Technologies). […] The final cholesterol content was calculated in ng of cholesterol per µg of protein.

Compound: C[C@@H]1[C@H](O)[C@@H](C)/C=C/C=C/C=C/C=C/C=C/C=C/C=C/[C@H](O[C@@H]2O[C@H](C)[C@@H](O)[C@H](N)[C@@H]2O)C[C@@H]2O[C@](O)(C[C@@H](O)C[C@@H](O)[C@H](O)CC[C@@H](O)C[C@@H](O)CC(=O)O[C@H]1C)C[C@H](O)[C@H]2C(=O)O [AmB, Amphotericin B]
- IC50 [1]: 16.8 µg/mL (≈ 18.1 µM)
- IC50 ([2]; CHO-K1, 3 h, A1G, complete Ham's F12 medium, AmB 3 h): 39.2 ± 4.49 µg/mL (≈ 42.4 µM)
- IC50 ([2]; CHO-K1, 6 h, A1G, complete Ham's F12 medium, 6 h AmB): 30.9 ± 1.66 µg/mL (≈ 33.5 µM)
- IC50 ([2]; CHO-K1, 16 h, A1G, complete Ham's F12 medium, 16 h AmB): 11.4 ± 0.35 µg/mL (≈ 12.4 µM)
- IC50 ([2]; CHO-K1, 16 h, A1G, ΔFBS medium + 10 µM zaragozic acid (ZA) 16 h): 9.75 ± 0.53 µg/mL
- IC50 ([2]; CHO-K1, A1G, complete Ham's F12 + 10 µM probucol (2 h pretreatment), AmB 3 h): 14.4 ± 0.36 µg/mL
- IC50 ([2]; CHO-K1, A1G, ΔFBS medium (delipidated serum)): 21.2 ± 1.09 µg/mL (≈ 22.9 µM)
- IC50 ([2]; CHO-K1, A1G, ΔFBS medium + ZA, reloaded with cholesterol (MβCD complex)): 18.9 ± 0.77 µg/mL
- [3H]-cholesterol efflux to AmB [3]: 5.1%
- IC50 ([4]; Raw 264.7 cells induced with 1 µM GW3965 for 24 h (ABCA1 expression)): 14.6 µg/mL (≈ 15.7 µM)
- IC50 ([4]; mock (DMSO) control Raw 264.7 cells): 6.18 µg/mL (≈ 6.69 µM)
- IC50 ([5]; CHO-K1, 3 h, MMG, complete Ham's F12 medium, AmB 3 h): 13.1 ± 1 µg/mL (≈ 14.2 µM)
- IC50 ([5]; CHO-K1, 6 h, MMG, complete Ham's F12 medium, 6 h AmB): 10.6 ± 0.48 µg/mL (≈ 11.5 µM)
- IC50 ([5]; CHO-K1, 16 h, MMG, complete Ham's F12 medium, 16 h AmB): 6.65 ± 0.28 µg/mL (≈ 7.2 µM)
- IC50 ([5]; CHO-K1, 16 h, MMG, ΔFBS medium + 10 µM zaragozic acid (ZA) 16 h): 10 ± 0.67 µg/mL
- IC50 ([5]; CHO-K1, MMG, complete Ham's F12 + 10 µM probucol (2 h pretreatment), AmB 3 h): 9.47 ± 0.31 µg/mL
- IC50 ([5]; CHO-K1, MMG, ΔFBS medium (delipidated serum)): 10.2 ± 0.42 µg/mL (≈ 11 µM)
- IC50 ([5]; CHO-K1, MMG, ΔFBS medium + ZA, reloaded with cholesterol (MβCD complex)): 6.42 ± 0.38 µg/mL
- [3H]-cholesterol efflux to AmB [6]: 0.3%

Compound: C=C(CC[C@]12O[C@H](C(=O)O)[C@@](O)(C(=O)O)[C@](C(=O)O)(O1)[C@H](OC(=O)/C=C/[C@@H](C)C[C@@H](C)CC)[C@H]2O)[C@@H](OC(C)=O)[C@H](C)Cc1ccccc1 [zaragozic acid]
- decrease of total cellular cholesterol content [7]: approximately 50%
